This assay concerns the target T1, p101/p110γ protein (PI3Kγ) (Homo sapiens, UniProt P48736).
T1 construct: HA; made in house; host or cells: Spodoptera frugiperda (Sf9) cells, baculovirus coinfection
The assay can be described thus: PI3Kγ In Vitro Kinase Assay. It is filed as biochemical. The settings on record: purified recombinant p101/p110γ with G protein β1/γ2 subunits; 20 μM ATP, 25 μM PIP2; 20 minutes at room temperature; radioactive PIP3 readout. On the procedure: Spodtera frugiperda cells, grown in ESF921 media, were coinfected with baculovirus expressing a glu-tagged […] and baculovirus expressing an HA-tagged p110γ, at a 3:1 ratio of p110 baculovirus to p110γ baculovirus. Sf9 cells were grown to 1×10^7 total cells/mL in 10L bioreactors and harvested 48-72 hours post infection. Samples of infected cells were then tested for expression of p101/p110γ PI3 kinase by immunoprecipitation and Western Blot analysis methods (see below).
To purify PI3Kγ, 4 volumes of room temperature hypotonic lysis buffer (1 mM MgCl2, 1 mM DTT, 5 mM EGTA, 1 mM Pefabloc, 0.5 μM aprotinin, […], 2 μM pepstatin, 5 μM E64, pH 8) per gram of cell paste, was poured onto frozen cell pellets with stirring, then lysed in a nitrogen “bomb” at 400 psi (599HC T316, Parr Instrument Co, Moline, Ill.). NaCl was added to 150 mM, and sodium cholate was added to 1% and mixed for another 45 minutes. The lysates were clarified by centrifugation for 25 minutes at 14,000 rpm. The lysates were then loaded over anti-glu-linked Protein-G Sepaharose beads (Covance Research Products, Richmond, Calif.) using 20 mL resin/50 g cell paste. The column was washed with 15 volumes of wash buffer (1 mM DTT, 0.2 mM EGTA, 1 mM Pefabloc, 0.5 μM aprotinin, 5 μM leupeptin, 2 μM pepstatin, 5 μM E64, 150 mM NaCl, 1% sodium cholate, pH 8). PI3Kγ was eluted with 6 column volumes of wash buffer that contain 100 μg/mL of a peptide that competes for binding of the glu tag. The column fractions with the eluted protein (determined by taking OD280 readings) were collected and dialyzed in 0.2 mM EGTA, 1 mM DTT, 1 mM Pefabloc, 5 μM leupeptin, 0.5% sodium cholate, 150 mM NaCl, and 50% glycerol, pH 8. The fractions were stored at −80° C. until further use.
Spodtera frugiperda cells were coinfected with baculovirus expressing a glu-tagged G protein β1 and baculovirus expressing a […] at a 1:1 ratio of glu-tagged G protein β1 baculovirus to G protein β2 baculovirus. Sf9 cells are grown in 10 L bioreactors and harvested 48-72 hours post infection. Samples of infected cells were tested for G protein β1/β2 expression by Western Blot analysis, as described below. Cell lysates were homogenized and loaded onto a column of glu-tagged beads as in Biological Example 1 and competed off the column with a glu peptide as described in Biological Example 1.
The inhibitory properties of the compounds in Table 1 were assayed in an in vitro PI3K assay. In a 96-well polypropylene plate, each well was spotted with 2 μL of 50 times the desired final concentration of compound in DMSO. Purified recombinant p101/p110γ protein (0.03 μg; ˜2.7 nM) and G protein β1/γ2 subunits (0.09 μg; −57.7 nM) for each reaction was combined in the assay buffer (30 mM HEPES, 100 mM NaCl, 1 mM EGTA, and 1 mM DTT). ATP and [γ-^32P-ATP] (0.09 μCi) were added to this mixture so that the final ATP concentration in the reaction was 20 μM. Lipid micelles were formed by sonicating phosphatidylinositol-4,5-diphosphate (PIP2), phosphatidylethanolamine (PE), and Na-cholate in the assay buffer for 10 minutes, adding MgCL2 and incubating on ice for 20 minutes, for final concentrations of 25 μM PIP2, 300 μM PE, 0.02% Na-cholate, and 10 mM MgCl2 in the reaction. The reactions were started by adding equal volumes lipid and enzyme mixture in a total volume of 50 μL, allowed to run for 20 minutes at room temperature, and stopped with 100 μL 75 mM H3PO4. The lipid product was transferred to a glass fiber filter plate and washed with 75 mM H3PO4 several times. The presence of radioactive lipid product (PIP3) was measured by adding Wallac Optiphase mix to each well and counting in a Wallac 1450 Trilux plate reader (PerkinElmer Life Sciences Inc., Boston, Mass. 02118). The IC50 for each compound tested is reported in μM in Table 1: […]

T1 sequence (P48736 whole entry, species assumed): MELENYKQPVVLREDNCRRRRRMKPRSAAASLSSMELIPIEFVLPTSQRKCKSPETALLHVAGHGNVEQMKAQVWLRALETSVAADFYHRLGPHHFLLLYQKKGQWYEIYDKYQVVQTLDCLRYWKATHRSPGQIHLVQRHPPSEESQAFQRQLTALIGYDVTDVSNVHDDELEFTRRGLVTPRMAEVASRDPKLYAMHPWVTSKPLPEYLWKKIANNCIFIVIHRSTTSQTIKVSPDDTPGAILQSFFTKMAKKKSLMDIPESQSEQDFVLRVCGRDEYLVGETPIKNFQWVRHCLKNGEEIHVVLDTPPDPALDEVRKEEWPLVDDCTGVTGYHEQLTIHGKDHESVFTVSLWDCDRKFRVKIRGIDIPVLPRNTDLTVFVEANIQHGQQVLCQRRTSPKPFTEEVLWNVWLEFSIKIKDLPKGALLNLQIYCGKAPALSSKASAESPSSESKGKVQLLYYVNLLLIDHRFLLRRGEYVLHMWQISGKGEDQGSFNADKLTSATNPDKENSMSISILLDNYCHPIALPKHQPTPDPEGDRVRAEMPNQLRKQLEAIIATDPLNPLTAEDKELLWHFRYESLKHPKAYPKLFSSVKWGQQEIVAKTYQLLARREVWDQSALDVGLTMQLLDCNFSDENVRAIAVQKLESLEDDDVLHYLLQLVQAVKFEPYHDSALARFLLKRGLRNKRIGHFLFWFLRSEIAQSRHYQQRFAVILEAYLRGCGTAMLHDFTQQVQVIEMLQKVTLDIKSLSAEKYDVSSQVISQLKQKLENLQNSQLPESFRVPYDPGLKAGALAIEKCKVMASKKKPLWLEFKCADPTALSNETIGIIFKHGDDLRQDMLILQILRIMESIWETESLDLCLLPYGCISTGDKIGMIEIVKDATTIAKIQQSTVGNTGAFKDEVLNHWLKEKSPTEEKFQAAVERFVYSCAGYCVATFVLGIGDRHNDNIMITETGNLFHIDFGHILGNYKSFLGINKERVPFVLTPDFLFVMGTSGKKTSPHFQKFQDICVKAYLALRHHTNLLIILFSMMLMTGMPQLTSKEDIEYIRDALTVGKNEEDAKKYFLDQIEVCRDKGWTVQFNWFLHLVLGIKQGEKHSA
T1 sequence (Q8WYR1 whole entry partner, species assumed): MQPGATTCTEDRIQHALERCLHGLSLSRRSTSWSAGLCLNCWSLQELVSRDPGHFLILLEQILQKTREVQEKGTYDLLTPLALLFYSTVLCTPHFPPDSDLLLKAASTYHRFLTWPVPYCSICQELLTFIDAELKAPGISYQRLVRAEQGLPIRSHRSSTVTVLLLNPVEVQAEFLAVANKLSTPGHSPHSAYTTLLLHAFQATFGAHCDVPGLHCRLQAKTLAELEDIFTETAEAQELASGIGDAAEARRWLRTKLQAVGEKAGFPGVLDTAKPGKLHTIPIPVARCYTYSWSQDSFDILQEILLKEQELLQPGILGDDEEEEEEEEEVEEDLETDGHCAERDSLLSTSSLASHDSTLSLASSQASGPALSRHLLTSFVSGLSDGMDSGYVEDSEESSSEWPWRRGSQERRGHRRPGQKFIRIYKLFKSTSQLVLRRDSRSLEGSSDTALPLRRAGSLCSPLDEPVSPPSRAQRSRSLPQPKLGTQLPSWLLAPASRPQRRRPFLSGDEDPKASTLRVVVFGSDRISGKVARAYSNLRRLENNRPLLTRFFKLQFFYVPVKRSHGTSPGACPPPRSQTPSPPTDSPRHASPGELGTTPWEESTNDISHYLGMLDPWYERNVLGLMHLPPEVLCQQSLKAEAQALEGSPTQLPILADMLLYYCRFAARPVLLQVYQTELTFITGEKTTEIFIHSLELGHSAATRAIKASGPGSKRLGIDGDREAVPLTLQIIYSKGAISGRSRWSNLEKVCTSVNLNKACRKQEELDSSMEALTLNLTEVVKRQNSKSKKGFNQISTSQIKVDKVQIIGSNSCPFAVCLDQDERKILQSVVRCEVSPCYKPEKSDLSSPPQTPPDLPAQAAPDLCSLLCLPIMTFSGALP

Broadly, the IC50 is the concentration needed to halve the response being measured. As for “2-(4-Oxo-2-thioxo-thiazolidin-5-ylidenemethyl)-7,8-dihydro-6H-5-oxa-9-aza-benzocycloheptene-9-carboxylic acid (3,5-dimethoxy-phenyl)-amide [Example 113]”, the half-inhibitory concentration (IC50) is 1320 nM.

Consider “2-(4-Oxo-2-thioxo-thiazolidin-5-ylidenemethyl)-7,8-dihydro-6H-5-oxa-9-aza-benzocycloheptene-9-carboxylic acid p-tolyl ester [Example 107]”, for which the half-maximal inhibitory concentration (IC50) is 704 nM.

In the case of “2-(4-Oxo-2-thioxo-thiazolidin-5-ylidenemethyl)-7,8-dihydro-6H-5-oxa-9-aza-benzocycloheptene-9-carboxylic acid p-tolylamide [Example 110]”, the half-inhibitory concentration (IC50) came to 3500 nM.

As to “2-(4-Oxo-2-thioxo-thiazolidin-5-ylidenemethyl)-7,8-dihydro-6H-5-oxa-9-aza-benzocycloheptene-9-carboxylic acid phenyl ester [Example 105]”, the IC50 stood at 424 nM.

As for “2-Thioxo-5-{9-[3-(3-trifluoromethyl-phenyl)-acryloyl]-6,7,8,9-tetrahydro-5-oxa-9-aza-benzocyclohepten-2-ylmethylene}-thiazolidin-4-one [Example 124]”, the IC50 is 4010 nM.

Take “2-[2-(4-Oxo-2-thioxo-thiazolidin-5-ylidenemethyl)-7,8-dihydro-6H-5-oxa-9-aza-benzocycloheptene-9-carbonyl]-anthraquinone [Example 127]”: the IC50 stood at 4990 nM.

With “4-(3,5-dimethyl-benzyl)-3,4-dihydro-2H-benzo[1,4]oxazine-6-ylmethylene]-2-thioxo-thiazolidin-4-one [Example 4]”, the half-inhibitory concentration (IC50) is 650 nM.

Take “4-[2-(4-Oxo-2-thioxo-thiazolidin-5-ylidenemethyl)-7,8-dihydro-6H-5-oxa-9-aza-benzocycloheptene-9-carbonyl]-benzonitrile [Example 121]”: the concentration for half-maximal inhibition (IC50) stood at 2610 nM.

As for “5-(9-Cyclopentanecarbonyl-6,7,8,9-tetrahydro-5-oxa-9-aza-benzocyclohepten-2-ylmethylene)-2-thioxo-thiazolidin-4-one [Example 111]”, the IC50 is 1000 nM.

Take “5-(9-Cyclopropanecarbonyl-6,7,8,9-tetrahydro-5-oxa-9-aza-benzocyclohepten-2-ylmethylene)-2-thioxo-thiazolidin-4-one [Example 104]”: the half-inhibitory concentration (IC50) was found to be 115 nM.

As for “5-[4-(7,7-Dimethyl-2-oxo-bicyclo[2.2.1]hept-1-ylmethanesulfonyl)-3,4-dihydro-2H-1,4-benzoxazin-6-ylmethylene]-2-thioxo-thiazolidin-4-one [Example 60]”, the concentration for half-maximal inhibition (IC50) stood at 330 nM.

In the case of “5-[4-(Furan-2-carbonyl)-3,4-dihydro-2H-1,4-benzoxazin-6-ylmethylene]-2-thioxo-thiazolidin-4-one [Example 41]”, the IC50 was determined as 65 nM.

Regarding “5-[9-(2-Benzyloxy-acetyl)-6,7,8,9-tetrahydro-5-oxa-9-aza-benzocyclohepten-2-ylmethylene]-2-thioxo-thiazolidin-4-one [Example 119]”, the 50% inhibitory concentration (IC50) amounted to 1650 nM.

Turning to “5-[9-(2-Thiophen-2-yl-acetyl)-6,7,8,9-tetrahydro-5-oxa-9-aza-benzocyclohepten-2-ylmethylene]-2-thioxo-thiazolidin-4-one [Example 112]”, the IC50 came out at 1140 nM.

Consider “5-[9-(3,4-Dichloro-benzoyl)-6,7,8,9-tetrahydro-5-oxa-9-aza-benzocyclohepten-2-ylmethylene]-2-thioxo-thiazolidin-4-one [Example 114]”, for which the 50% inhibitory concentration (IC50) is 1380 nM.

Regarding “5-[9-(3-Phenyl-acryloyl)-6,7,8,9-tetrahydro-5-oxa-9-aza-benzocyclohepten-2-ylmethylene]-2-thioxo-thiazolidin-4-one [Example 115]”, the 50% inhibitory concentration (IC50) is 1520 nM.

Consider “5-[9-(4-Hexyl-benzoyl)-6,7,8,9-tetrahydro-5-oxa-9-aza-benzocyclohepten-2-ylmethylene]-2-thioxo-thiazolidin-4-one [Example 126]”, for which the IC50 was 4200 nM.

As to “5-[9-(5-tert-Butyl-2-methyl-furan-3-carbonyl)-6,7,8,9-tetrahydro-5-oxa-9-aza-benzocyclohepten-2-ylmethylene]-2-thioxo-thiazolidin-4-one [Example 125]”, the IC50 worked out at 4600 nM.

In the case of `O=C1NC(=S)SC1=Cc1ccc2c(c1)N(C(=O)c1ccccc1)CCO2` [Example 1, 5-[4-(1-Phenyl-methanoyl)-3,4-dihydro-2H-benzo[1,4]oxazine-6-ylmethylene]-2-thioxo-thiazolidin-4-one], the IC50 came to 56 nM.

As to `O=C1NC(=S)SC1=Cc1ccc2c(c1)N(C(=O)C1CCCCC1)CCO2` [Example 2, 5-[4-(1-Cyclohexyl-methanoyl)-3,4-dihydro-2H-benzo[1,4]oxazine-6-ylmethylene]-2-thioxo-thiazolidin-4-one], the IC50 stood at 21.7 nM.

As for `O=C1NC(=S)SC1=Cc1ccc2c(c1)N(S(=O)(=O)c1ccccc1)CCO2` [Example 3, 5-[(4-benzenesulfonyl)-3,4-dihydro-2H-benzo[1,4]oxazine-6-ylmethylene)-2-thioxo-thiazolidin-4-one], the IC50 was found to be 1130 nM.

For the molecule `CC(C)(C)c1cc(CN2CCOc3ccc(C=C4SC(=S)NC4=O)cc32)cc(C(C)(C)C)c1` [Example 5, 5[4-(3,5-Di-tert-butyl-benzyl)-3,4-dihydro-2H-benzo[1,4]oxazine-6-ylmethylene]-2-thioxo-thiazolidin-4-one], the IC50 is 1870 nM.

In the case of `COc1cc(CN2CCCOc3ccc(C=C4SC(=S)NC4=O)cc32)cc(OC)c1` [Example 6, 5-[9-(3,5-Dimethoxy-benzyl)-6,7,8,9-tetrahydro-5-oxa-9-aza-benzocyclohepten-2-ylmethylene]-2-thioxo-thiazolidin-4-one], the IC50 was 151 nM.

As for `Cc1cc(C)cc(CN2CCCOc3ccc(C=C4SC(=S)NC4=O)cc32)c1` [Example 7, 5-[9-(3,5-Dimethyl-benzyl)-6,7,8,9-tetrahydro-5-oxa-9-aza-benzocyclohepten-2-ylmethylene]-2-thioxo-thiazolidin-4-one], the 50% inhibitory concentration (IC50) was 780 nM.

On to `CC1COc2ccc(C=C3SC(=S)NC3=O)cc2N1C(=O)c1ccccc1` (centres unmarked) [Example 8, 5-[3-Methyl-4-(-phenyl-methanoyl)-3,4-dihydro-2H-benzo[1,4]oxazine-6-ylmethylene]-2-thioxo-thiazolidin-4-one], for which the IC50 is 2180 nM.

On to `Cc1cc(C)cc(CN2c3cc(C=C4SC(=S)NC4=O)ccc3OCC2C)c1` (centres unmarked) [Example 9, 5-[4-(3,5-Dimethyl-benzyl)-3-methyl-3,4-dihydro-2H-benzo[1,4]oxazine-6-ylmethylene]-2-thioxo-thiazolidin-4-one], for which the IC50 was found to be 2590 nM.

For the molecule `O=C1NC(=S)SC1=Cc1ccc2c(c1)NCCO2` [Example 10, 5-(3,4-dihydro-2H-benzo[1,4]oxazine-6-ylmethylene)-2-thioxo-thiazolidin-4-one], the IC50 came out at 160 nM.

`O=C1NC(=S)SC1=Cc1ccc2c(c1)N(C(=O)Cc1ccc3ccccc3c1)CCO2` [Example 11, 5-[4-(2-Naphthalen-2-yl-acetyl)-3,4-dihydro-2H-benzo[1,4]oxazine-6-ylmethylene]-2-thioxo-thiazolidin-4-one]: the half-maximal inhibitory concentration (IC50) was 53 nM.

Turning to `O=C1NC(=S)SC1=Cc1ccc2c(c1)N(C(=O)c1ccncc1)CCO2` [Example 12], the IC50 turned out to be 410 nM.
